Data on ten compounds can be found in ChEMBL document CHEMBL1201862, “PubChem BioAssay data set” (2004).

Holding throughout (assay): growth of human tumour cells (NCI), 48 h
Experiment [1] has as its system BT-549.
Experiment [2] relates to HOP-62.
In experiment [3] the test system is LOX IMVI.
Experiment [4] deals with K562.
For experiment [5], the system named is ACHN.
Experiment [6] relates to SNB-19.
For experiment [7], the system named is UO-31.
Experiment [8] concerns RPMI-8226.
The subject of experiment [9] is OVCAR-4.
For experiment [10], the system named is SK-MEL-5.
Experiment [11] concerns HCC 2998.
The test system of experiment [12] is MDA-MB-231.
In experiment [13] the test system is OVCAR-5.
Experiment [14] relates to NCI-H460.
Experiment [15] concerns SF-268.
In experiment [16] the test system is MDA-MB-435.
The test system of experiment [17] is SF-295.
The subject of experiment [18] is HCT-116.
In experiment [19] the test system is T47D.
For experiment [20], the system named is OVCAR-3.

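96-well plates; 48 h exposure; 5 concentrations. Endpoints by linear interpolation between flanking doses. Not reached: highest tested concentration assigned. GI50 = concentration required for 50% inhibition of growth.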 The source made the active and inactive calls. Rule as the data show it: active = GI50 up to about 1.1 µM and inactive = higher.

For the compound `O=C1CCC(CCc2nc3ccccc3[nH]2)(c2ccccc2)C(=O)N1` (stereo not given), the GI50 in experiment [1] was > 100 µM (inactive); in experiment [2] it was > 100 µM (inactive); in [3], > 100 µM (inactive); in [4], 64 µM (inactive); in experiment [5], > 100 µM (inactive); in [6], > 100 µM (inactive). For the same compound, the GI50 is 20.2 µM (inactive) in [7]; > 100 µM (inactive) in experiment [8]; > 100 µM (inactive) in experiment [9]; > 100 µM (inactive) in [10]; > 100 µM (inactive) in [11]; > 100 µM (inactive) in experiment [12]. For the same compound, the GI50 in [13], in experiment [14], in [15], in experiment [16], in [17] and in experiment [18] was > 100 µM (inactive) throughout. The GI50 in [19] and in experiment [20] was > 100 µM (inactive) each time.
Consider `CS[C@]12C(=O)C[C@@]3(C)[C@@H](CC[C@]3(O)C(=O)CO)[C@@H]1CCC1=CC(=O)CC[C@@]12C`, for which the GI50 in experiment [1] is 68.2 µM (inactive); in experiment [2] it was > 100 µM (inactive); in experiment [3], > 100 µM (inactive); in experiment [4], 37.1 µM (inactive); in [5], > 100 µM (inactive); in [6] it was > 100 µM (inactive). In addition, the GI50 in experiment [7] was 95.5 µM (inactive); in [8] it was 30.1 µM (inactive); in experiment [9], > 100 µM (inactive); in [10], > 100 µM (inactive); in experiment [11], 26.9 µM (inactive); in [12], > 100 µM (inactive). The GI50 in experiment [13] was > 100 µM (inactive); in [14], > 100 µM (inactive); in experiment [15] it was > 100 µM (inactive); in [16] it was 30.1 µM (inactive); in experiment [17] it was > 100 µM (inactive); in experiment [18] it was > 100 µM (inactive). Moreover, the GI50 in [19] and in [20] was > 100 µM (inactive) each time.
On to `CCOC(=O)c1nc2cc(F)cc(F)c2[nH]c1=O`, for which the GI50 in experiment [1], in experiment [2], in experiment [3], in experiment [4], in [5] and in experiment [6] was > 100 µM (inactive) in each case. The GI50 in experiment [7] was 72.8 µM (inactive); in [8] it was > 100 µM (inactive); in experiment [9], > 100 µM (inactive); in experiment [10], > 100 µM (inactive); in [11] it was > 100 µM (inactive); in experiment [12], > 100 µM (inactive). Moreover, the GI50 in experiment [13], in experiment [14], in [15], in [16], in experiment [17] and in experiment [18] was > 100 µM (inactive) in each case. In addition, the GI50 in [19] and in experiment [20] was > 100 µM (inactive) throughout.
Consider `CC1NC(=O)C2Cc3ccc(O)c(c3)Oc3ccc(cc3)C(O)C(C(=O)N2C)N(C)C(=O)C(C)NC(=O)C(Cc2ccc(O)cc2)N(C)C(=O)C(C)NC1=O` (stereo not given), for which the GI50 in experiment [1] was 24.6 µM (inactive); in experiment [2], 34.7 µM (inactive); in experiment [3] it was 5.43 µM (inactive); in [4], > 100 µM (inactive); in experiment [5], > 100 µM (inactive); in experiment [6] it was 13.8 µM (inactive). The GI50 is > 100 µM (inactive) in [7]; 12 µM (inactive) in experiment [8]; 35.1 µM (inactive) in experiment [9]; 31.6 µM (inactive) in experiment [10]; 22.2 µM (inactive) in experiment [11]; 11.1 µM (inactive) in [12]. The GI50 in experiment [13] was 42.6 µM (inactive); in [14], 31.3 µM (inactive); in experiment [15], 4.03 µM (inactive); in [16], 18.8 µM (inactive); in experiment [17], > 100 µM (inactive); in experiment [18], 9.64 µM (inactive). Besides, the GI50 in experiment [19] was 15.9 µM (inactive); in [20], 25.3 µM (inactive).
In the case of `O=c1cc(-c2ccccc2)oc2c1ccc1nc3ccccc3c(O)c12`, the GI50 in experiment [1] is 33.5 µM (inactive); in experiment [2] it was 88.1 µM (inactive); in experiment [3], 12.5 µM (inactive); in experiment [4], > 100 µM (inactive); in experiment [5], 43.5 µM (inactive); in experiment [6] it was > 100 µM (inactive). The GI50 in experiment [7] was 80.2 µM (inactive); in experiment [8] it was 51.1 µM (inactive); in [9] it was 34.8 µM (inactive); in experiment [10], 47.6 µM (inactive); in [11] it was 62.8 µM (inactive); in experiment [12] it was > 100 µM (inactive). For the same compound, the GI50 was > 100 µM (inactive) in [13]; 14.7 µM (inactive) in [14]; 39.8 µM (inactive) in experiment [15]; > 100 µM (inactive) in [16]; 49.4 µM (inactive) in [17]; 26.4 µM (inactive) in experiment [18]. Moreover, the GI50 in experiment [19] was 40.8 µM (inactive); in experiment [20], 79.1 µM (inactive).
For the compound `O=[N+]([O-])c1cc(/C=N/C23CC4CC(CC(C4)C2)C3)ccc1Cl`, the GI50 is 21 µM (inactive) in experiment [1]; 4 µM (inactive) in experiment [2]; 19 µM (inactive) in [3]; 4.42 µM (inactive) in experiment [4]; 24 µM (inactive) in experiment [5]; 28.6 µM (inactive) in experiment [6]. The GI50 in experiment [7] is 7.52 µM (inactive); in [8], 4.31 µM (inactive); in experiment [9] it was 19.5 µM (inactive); in experiment [10] it was 21.5 µM (inactive); in [11], 30.5 µM (inactive); in [12] it was 11.7 µM (inactive). Further, the GI50 in experiment [13] is 34 µM (inactive); in [14], 31.8 µM (inactive); in experiment [15], 28.7 µM (inactive); in experiment [16], 16.5 µM (inactive); in experiment [17] it was 37.9 µM (inactive); in experiment [18], 3.94 µM (inactive). Moreover, the GI50 in [19] was 18.2 µM (inactive); in [20] it was 17.9 µM (inactive).
On to `CCCC1NC(C#N)(C#N)C(CCC)NC1(C#N)C#N` (stereo not given), for which the GI50 was 1.12 µM (inactive) in experiment [1]; 35.8 µM (inactive) in [2]; 0.105 µM (active) in experiment [3]; 0.0589 µM (active) in [4]; 0.296 µM (active) in [5]; 40.9 µM (inactive) in [6]. The GI50 in [7] was 0.0787 µM (active); in experiment [8], < 0.01 µM (active); in experiment [9], 1.18 µM (inactive); in experiment [10], 1.44 µM (inactive); in [11] it was 7.96 µM (inactive); in experiment [12], 27.8 µM (inactive). In addition, the GI50 is 24.7 µM (inactive) in experiment [13]; 14 µM (inactive) in experiment [14]; 1.31 µM (inactive) in [15]; 0.106 µM (active) in [16]; 22.7 µM (inactive) in experiment [17]; < 0.0158 µM (active) in experiment [18]. The GI50 is 0.946 µM (active) in experiment [19] and 0.076 µM (active) in [20].
Turning to `S=c1[nH]c2ccc(Br)cc2c(=S)s1`, the GI50 is 29.9 µM (inactive) in experiment [1]; 34.8 µM (inactive) in [2]; 32.4 µM (inactive) in experiment [3]; 29.6 µM (inactive) in experiment [4]; 22.2 µM (inactive) in experiment [5]; 31.5 µM (inactive) in experiment [6]. The GI50 is 22.1 µM (inactive) in experiment [7]; 29.2 µM (inactive) in [8]; 10.8 µM (inactive) in [9]; 16.5 µM (inactive) in experiment [10]; 26.1 µM (inactive) in experiment [11]; 22.8 µM (inactive) in experiment [12]. The GI50 in [13] is 19.2 µM (inactive); in experiment [14], 22.1 µM (inactive); in experiment [15], 34.4 µM (inactive); in experiment [16] it was 23.2 µM (inactive); in experiment [17], 27.4 µM (inactive); in [18], 21.5 µM (inactive). Further, the GI50 in experiment [19] is 22.5 µM (inactive); in experiment [20], 26.5 µM (inactive).
Take `CCC1NC(=O)C(NC(=O)c2ncccc2O)C(C)OC(=O)C(c2ccccc2)NC(=O)C2CC(=O)CCN2C(=O)C(Cc2ccccc2)N(C)C(=O)C2CCCN2C1=O` (stereo not given): the GI50 in [1], in experiment [2], in experiment [3], in [4], in [5] and in [6] was > 100 µM (inactive) throughout. Besides, the GI50 in experiment [7] was > 100 µM (inactive); in [8], > 100 µM (inactive); in [9], 57.1 µM (inactive); in [10] it was > 100 µM (inactive); in experiment [11], > 100 µM (inactive); in experiment [12] it was > 100 µM (inactive). For the same compound, the GI50 in experiment [13], in [14], in experiment [15], in experiment [16], in [17] and in experiment [18] was > 100 µM (inactive) throughout. The GI50 in [19] and in experiment [20] was > 100 µM (inactive) in each case.
On to `N=C1OC(c2c[nH]c3ccc(OCc4ccccc4)cc23)C(O)=C1O` (stereo not given), for which the GI50 in experiment [1], in experiment [2], in experiment [3], in experiment [4], in [5] and in [6] was > 100 µM (inactive) in each case. Besides, the GI50 in [7] was > 100 µM (inactive); in [8], > 100 µM (inactive); in experiment [9] it was > 100 µM (inactive); in experiment [10], > 100 µM (inactive); in experiment [11], 0.951 µM (active); in experiment [12], 74.5 µM (inactive). The GI50 in experiment [13], in experiment [14], in experiment [15], in experiment [16], in [17] and in experiment [18] was > 100 µM (inactive) each time. The GI50 in experiment [19] and in [20] was > 100 µM (inactive) in each case.
